Source: ChEMBL document CHEMBL2062379, “Cleavage mechanism and anti-tumor activity of 3,6-epidioxy-1,10-bisaboladiene isolated from edible wild plants” (Bioorg Med Chem, 2012)
The source made the active and inactive calls. The calls are words filed in the database; no cut-off is given here.

Legend:
MCF7 = test: Growth inhibition of human MCF7 cells; assay type: functional
MDA-MB-231 = test: Growth inhibition of human MDA-MB-231 cells; assay type: functional
U-251 = test: Growth inhibition of human U251 cells; assay type: functional
SF-268 = test: Growth inhibition of human SF268 cells; assay type: functional
SF-295 = test: Growth inhibition of human SF295 cells; assay type: functional
SF-539 = test: Growth inhibition of human SF539 cells; assay type: functional
SNB-75 = test: Growth inhibition of human SNB75 cells; assay type: functional
SNB-78 = test: Growth inhibition of human SNB78 cells; assay type: functional
HCC 2998 = test: Growth inhibition of human HCC2998 cells; assay type: functional
KM12 = test: Growth inhibition of human KM12 cells; assay type: functional
HCT-15 = test: Growth inhibition of human HCT15 cells; assay type: functional
HCT-116 = test: Growth inhibition of human HCT116 cells; assay type: functional
NCI-H522 = test: Growth inhibition of human NCI-H522 cells; assay type: functional
NCI-H460 = test: Growth inhibition of human NCI-H460 cells; assay type: functional
A549 = test: Growth inhibition of human A549 cells; assay type: functional
DMS-273 = test: Growth inhibition of human DMS273 cells; assay type: functional
DMS-114 = test: Growth inhibition of human DMS114 cells; assay type: functional
OVCAR-5 = test: Growth inhibition of human OVCAR5 cells; assay type: functional
OVCAR-8 = test: Growth inhibition of human OVCAR8 cells; assay type: functional
SK-OV-3 = test: Growth inhibition of human SKOV3 cells; assay type: functional
[1] = Growth inhibition of human RXF631L cells; assay type: functional; settings: RXF 631
ACHN = test: Growth inhibition of human ACHN cells; assay type: functional
St-4 = test: Growth inhibition of human St-4 cells; assay type: functional
[2] = Growth inhibition of human MKN1 cells; assay type: functional; settings: MKN-1
MKN-28 = test: Growth inhibition of human MKN28 cells; assay type: functional
MKN-45 = test: Growth inhibition of human MKN45 cells; assay type: functional
MKN-74 = test: Growth inhibition of human MKN74 cells; assay type: functional
LOX IMVI = test: Antitumor activity against human LOXIMVI cells xenografted in nude mouse assessed as decrease in tumor volume at 25 mg/kg, iv administered on day 1, 6 and 11 post tumor inoculation measured on day 21; assay type: functional; set-up: scale not given: the % may be the effect or the level left
Saccharomyces cerevisiae [3] = test: Growth restoration activity in cdc2-1 rad9-deficient Saccharomyces cerevisiae assessed as growth zone incubated at 37 degC for 6 hrs and 28 degC for 2 days; assay type: functional, organism-based
DU-145 = test: Growth inhibition of human DU145 cells; assay type: functional
PC-3 = test: Growth inhibition of human PC3 cells; assay type: functional
Saccharomyces cerevisiae [4] = test: Growth restoration activity in cdc2-1 rad9-deficient Saccharomyces cerevisiae assessed as growth zone incubated at 37 degC for 6 hrs and 28 degC for 2 days relative to mycophenolic acid; assay type: functional
K562 = test: Cytotoxicity against human K562 cells after 4 days by MTT assay; assay type: functional, cell-based; settings: K562, 96 h
LNCaP = test: Cytotoxicity against human LNCAP cells after 4 days by MTT assay; assay type: functional, cell-based; settings: 96 h
Saccharomyces cerevisiae [5] = test: Growth restoration activity in cdc2-1 rad9-deficient Saccharomyces cerevisiae assessed as growth zone at 2 ug/disc incubated at 37 degC for 6 hrs and 28 degC for 2 days; assay type: functional
Saccharomyces cerevisiae [6] = test: Growth restoration activity in cdc2-1 rad9-deficient Saccharomyces cerevisiae assessed as growth zone at 1 ug/disc incubated at 37 degC for 6 hrs and 28 degC for 2 days; assay type: functional
HL-60 [7] = test: Cytotoxicity against human HL60 cells after 48 hrs by MTT assay; assay type: functional, cell-based; settings: HL-60, 48 h
HL-60 [8] = test: Induction of apoptosis in human HL60 cells assessed as DNA fragmentation after 24 hrs by Hoechst staining-based microscopic analysis; assay type: functional, cell-based
HL-60 [9] = test: Induction of apoptosis in human HL60 cells assessed as DNA fragmentation at 1.25 to 40 uM by Hoechst staining-based microscopic analysis; assay type: functional, cell-based; settings: TDE = time-dependent effect
HL-60 [10] = test: Induction of apoptosis in human HL60 cells assessed as caspase 3/7 activation at 20 uM after 3 hrs by spectrophotometric analysis; assay type: functional, cell-based
HL-60 [11] = test: Induction of apoptosis in human HL60 cells assessed as caspase 9 activation at 20 uM after 3 hrs by spectrophotometric analysis; assay type: functional, cell-based
HL-60 [12] = test: Induction of apoptosis in human HL60 cells assessed as caspase 8 activation after 1 to 6 hrs by spectrophotometric analysis; assay type: functional, cell-based
HL-60 [13] = test: Induction of apoptosis in human HL60 cells assessed as DNA fragmentation after 24 hrs by Hoechst staining-based microscopic analysis preincubated with 20 uM p38 MAPK inhibitor SB203580; assay type: functional, cell-based
HL-60 [14] = test: Induction of apoptosis in human HL60 cells assessed as DNA fragmentation after 24 hrs by Hoechst staining-based microscopic analysis preincubated with 5 uM JNK inhibitor SP600125; assay type: functional, cell-based
[15] = target: MAP kinase p38 (Homo sapiens) (UniProt O15264+Q15759+Q16539+P53778); test: Induction of p38 MAPK phosphorylation at T180/Y182 in human HL60 cells at 10 uM after 3 hrs by Western blot analysis; assay type: cell-based; settings: HL-60
HL-60 [16] = test: Cytotoxicity against human HL60 cells after 48 hrs by MTT assay in absence of DFOM; assay type: functional, cell-based; settings: HL-60, 48 h
HL-60 [17] = test: Cytotoxicity against human HL60 cells after 48 hrs by MTT assay in presence of DFOM; assay type: functional, cell-based; settings: HL-60, 48 h
HL-60 [18] = test: Cytotoxicity against human HL60 cells assessed as cell viability at 2 uM by MTT assay; assay type: functional; settings: read-out: Activity
HL-60 [19] = test: Cytotoxicity against human HL60 cells assessed as cell viability at 2 uM by MTT assay in presence of 20 uM FeSO4; assay type: functional
HL-60 [20] = test: Cytotoxicity against human HL60 cells assessed as cell viability at 2 uM by MTT assay in presence of 20 uM Fe2(SO4)3; assay type: functional
HL-60 [21] = test: Induction of ROS generation in human HL60 cells at 10 uM measured immediately by spectrofluorometric analysis; assay type: functional, cell-based
HL-60 [22] = test: Induction of ROS generation in human HL60 cells at 10 uM after 3 hrs by spectrofluorometric analysis; assay type: functional, cell-based
[23] = Induction of ROS generation at 10 uM after 3 hrs by spectrofluorometric analysis in presence of FeSO4; assay type: physicochemical
HL-60 [24] = test: Induction of apoptosis in human HL60 cells assessed as DNA fragmentation after 24 hrs by Hoechst staining-based microscopic analysis in presence of 100 uM free radical scavenger vitamin E; assay type: functional, cell-based
HL-60 [25] = test: Induction of apoptosis in human HL60 cells assessed as DNA fragmentation after 24 hrs by Hoechst staining-based microscopic analysis in presence of 10 mM hydrogen peroxide scavenger NAC; assay type: functional, cell-based
[26] = Growth inhibition of human HBC4 cells; assay type: functional
[27] = Growth inhibition of human BSY1 cells; assay type: functional; settings: BSY-1
[28] = Growth inhibition of human HBC5 cells; assay type: functional

CC(C)=CCCC(C)C12C=CC(C)(CC1)OO2 (stereo not drawn)
GI50 (MCF7): 2.09 µM | GI50 (MDA-MB-231): 11.7 µM | GI50 (U-251): 5.01 µM | GI50 (SF-268): 7.08 µM | GI50 (SF-295): 1.66 µM | GI50 (SF-539): 2.57 µM | GI50 (SNB-75): 1.32 µM | GI50 (SNB-78): 1.55 µM | GI50 (HCC 2998): 4.68 µM | GI50 (KM12): 1.86 µM | GI50 (HCT-15): 4.9 µM | GI50 (HCT-116): 3.72 µM | GI50 (NCI-H522): 0.2 µM | GI50 (NCI-H460): 0.832 µM | GI50 (A549): 1.55 µM | GI50 (DMS-273): 1.15 µM | GI50 (DMS-114): 10.7 µM | GI50 (OVCAR-5): 12 µM | GI50 (OVCAR-8): 12 µM | GI50 (SK-OV-3): 7.94 µM | GI50 [1]: 2.51 µM | GI50 (ACHN): 1.23 µM | GI50 (St-4): 5.37 µM | GI50 [2]: 1.74 µM | GI50 (MKN-28): 8.32 µM | GI50 (MKN-45): 6.31 µM | GI50 (MKN-74): 1.17 µM | Activity (LOX IMVI): 26.9% | Activity (Saccharomyces cerevisiae [3]): Dose-dependent effect | GI50 (DU-145): 2.63 µM | GI50 (PC-3): 1.82 µM | fold change (FC) (Saccharomyces cerevisiae [4]): 50 | IC50 (K562): 9.1 µM | IC50 (LNCaP): 23.4 µM | Activity (Saccharomyces cerevisiae [5]): 24.1 mm | Activity (Saccharomyces cerevisiae [6]): 19 mm | IC50 (HL-60 [7]): 3.4 µM | Activity (HL-60 [8]): Dose-dependent effect | Activity (HL-60 [9]): tde | Activity (HL-60 [10]): Active | Activity (HL-60 [11]): Active | Activity (HL-60 [12]): Dose-dependent effect | Activity (HL-60 [13]): inactive | Activity (HL-60 [14]): Active | Activity [15]: Active | IC50 (HL-60 [16]): 3.7 µM | IC50 (HL-60 [17]): 35.5 µM | viability at 2 µM (HL-60 [18]): 77.8% | Activity (HL-60 [19]): 33.2% | Activity (HL-60 [20]): 34.9% | Activity (HL-60 [21]): Active | Activity (HL-60 [22]): inactive | Activity [23]: Active | Activity (HL-60 [24]): inactive | Activity (HL-60 [25]): Active | GI50 [26]: 1.12 µM | GI50 [27]: 2.95 µM | GI50 [28]: 0.191 µM
